Molecules are shown by their SMILES.

The assay relates to ribosome. The assay can be described thus: Toeprinting analysis of ribosome arrest during in vitro translation. The format is biochemical. As to conditions: model yrbA-fs15 ORF with UAG stop codon; 50 μM.

For the compound `C=C[C@]1(C)C[C@@H](OC(=O)CS[C@@H]2C[C@H]3CC[C@@H](C2)N3C)[C@]2(C)[C@H](C)CC[C@]3(CCC(=O)[C@H]32)[C@@H](C)[C@@H]1O` [retapamulin], the “ribosome arrest site (toeprint)” value is “ribosomes arrested at the start codon”.

For the origin of these results see PMC10757563 (Nature chemical biology, 2023).
